Assays:
[1] = test system: level 9 bleached light brown hair; test: Differential Scanning Calorimetry of treated hair tress (denaturation temperature); details: 1.5% compound in water, pH4.5; tress soaked at 35° C. for 10 minutes, dried; DSC 90-180° C. at 4° C. per minute
Experimental: A 2.5 g tress of level 9 bleached light brown hair was treated with the aforementioned composition as follows.
a) Soaked the tress in 25 ml solution of the composition at 35° C. for 10 minutes
b) Excess liquor was squeezed off
c) Dry the hair tress using a hair drier.
The hair tress was then evaluated by Differential Scanning Calorimetry (Perkin Elmer DSC6000). Samples (˜5 mg) were cut and placed into a stainless steel pan and 50 microlitres deionised Water was added before sealing. The heating profile was between 90-180° C. at 4° C. per minute.

[2] = test system: level 9 bleached light brown hair; test: Fourier Transform Infrared Spectroscopy (FTIR, UATR) of treated hair tress; details: 1.5% compound in water, pH4.5; tress soaked at 35° C. for 10 minutes, dried; same tresses as DSC
Experimental: (§1) The same hair tresses were also analysed by Fourier Transform Infrared Spectroscopy (FTIR) (Perkin Elmer Frontier) using an UATR attachment. […] For example, in the FTIR spectra, the peaks at 1853 cm^−1 and 1547 cm^−1 are peaks which are neither present in the AADEG itself or the untreated hair, and conversely peaks at 1888 cm^−1 and 1164 cm^−1 are present in the untreated hair, but not in the treated hair.
as §1, with “1713” for “1853”, “1481” for “1547”, “1351” for “1888”, “1303” for “1164”

Compound: CC(=O)CC(=O)OCCOCCOC(=O)CC(C)=O [Acetoacetylated Diethylene Glycol]
- denaturation temperature (Td) of treated hair compared to hair treated with water alone [1]: significant increase
- 2nd derivative FTIR spectra of treated hair compared to untreated samples [2]: a number of new bonds

Compound: CC(=O)CC(=O)OCCOC(=O)CC(C)=O [Acetoacetylated Ethylene Glycol]
- denaturation temperature (Td) of treated hair compared to hair treated with water alone [1]: significant increase
- 2nd derivative FTIR spectra of treated hair compared to untreated samples [2]: a number of new bonds

Compound: CC(=O)CC(=O)OCCOCCOCCOC(=O)CC(C)=O [Acetoacetylated Triethylene Glycol]
- denaturation temperature (Td) of treated hair compared to hair treated with water alone [1]: significant increase
